Source: PMC5446775, “Interactions of 172 plant extracts with human organic anion transporter 1 (SLC22A6) and 3 (SLC22A8): a study on herb-drug interactions” (PeerJ, 2017)
Several values for one entry are separate records, joined by “and”; a condition that tells them apart may be missing. Equal values may be shown once.

Tests used:
[1] = biological target: T1, hOAT3 (Homo sapiens, UniProt Q8TCC7); assay: Time course and uptake kinetics of 6-CF in HEK-OAT3 cells
T1 sequence (Q8TCC7 1-542): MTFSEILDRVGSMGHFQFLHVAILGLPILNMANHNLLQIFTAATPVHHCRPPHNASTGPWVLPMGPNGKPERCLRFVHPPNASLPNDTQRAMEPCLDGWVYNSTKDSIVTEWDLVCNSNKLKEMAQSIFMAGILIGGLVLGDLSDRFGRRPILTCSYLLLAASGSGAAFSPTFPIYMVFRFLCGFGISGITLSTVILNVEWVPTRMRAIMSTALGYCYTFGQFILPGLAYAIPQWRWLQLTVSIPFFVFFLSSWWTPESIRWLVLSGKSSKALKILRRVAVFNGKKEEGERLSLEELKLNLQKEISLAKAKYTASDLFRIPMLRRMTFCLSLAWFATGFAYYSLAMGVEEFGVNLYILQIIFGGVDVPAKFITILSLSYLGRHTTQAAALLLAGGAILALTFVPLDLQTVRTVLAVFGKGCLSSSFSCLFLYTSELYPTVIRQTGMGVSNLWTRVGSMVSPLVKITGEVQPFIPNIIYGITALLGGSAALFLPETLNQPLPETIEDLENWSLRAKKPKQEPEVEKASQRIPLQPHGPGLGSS

[2] = biological target: T2, hOAT1 (Homo sapiens, UniProt Q4U2R8); assay: Time course and uptake kinetics of 6-CF in HEK-OAT1 cells
T2 sequence (Q4U2R8 1-563): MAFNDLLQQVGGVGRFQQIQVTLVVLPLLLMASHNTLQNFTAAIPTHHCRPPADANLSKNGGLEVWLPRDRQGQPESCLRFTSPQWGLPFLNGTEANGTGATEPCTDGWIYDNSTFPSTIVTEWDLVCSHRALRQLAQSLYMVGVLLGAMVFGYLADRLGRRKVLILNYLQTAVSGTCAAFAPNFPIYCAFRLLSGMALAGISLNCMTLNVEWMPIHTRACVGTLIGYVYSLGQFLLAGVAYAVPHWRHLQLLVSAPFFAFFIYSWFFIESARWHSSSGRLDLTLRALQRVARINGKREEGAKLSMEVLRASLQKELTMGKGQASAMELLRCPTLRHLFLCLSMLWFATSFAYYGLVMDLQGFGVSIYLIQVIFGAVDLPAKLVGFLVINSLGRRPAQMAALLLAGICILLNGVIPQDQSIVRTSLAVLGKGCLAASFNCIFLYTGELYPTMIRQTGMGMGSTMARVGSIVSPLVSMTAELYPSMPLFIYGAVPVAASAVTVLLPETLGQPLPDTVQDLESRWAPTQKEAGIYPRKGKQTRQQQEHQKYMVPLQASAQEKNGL

[3] = system: HEK-EV cells; assay: Time course of 6-CF uptake in HEK-EV cells; format: cell-based; parameters: unit not given beside the values

Q: Which results are given for `O=C(O)c1ccc(C(=O)O)c(-c2c3ccc(=O)cc-3oc3cc(O)ccc23)c1` [6-CF, 6-Carboxyfluorescein]?
A: 6-CF uptake, time course (replicates) ([1]; HEK-OAT3, 0 min): -0.2934 and -0.3139 and -0.3557; 6-CF uptake, saturation curve (replicates) ([1]; HEK-OAT3, 6-CF 0.4882813 uM): 0.3918 and 0.3329 and 0.4388; 6-CF uptake, saturation curve (replicates) ([1]; HEK-OAT3, 6-CF 0.9765625 uM): 0.698 and 0.5037 and 0.6877; 6-CF uptake, saturation curve (replicates) ([1]; HEK-OAT3, 6-CF 1.953125 uM): 1.795 and 1.575 and 1.458; 6-CF uptake, saturation curve (replicates) ([1]; HEK-OAT3, 6-CF 3.90625 uM): 4.35 and 4.472 and 4.585; 6-CF uptake, saturation curve (replicates) ([1]; HEK-OAT3, 6-CF 7.8125 uM): 6.975 and 7.312 and 7.453; 6-CF uptake, saturation curve (replicates) ([1]; HEK-OAT3, 6-CF 15.625 uM): 11.68 and 13.8 and 13.42; 6-CF uptake, saturation curve (replicates) ([1]; HEK-OAT3, 6-CF 31.25 uM): 16.87 and 19.83 and 17.42; 6-CF uptake, saturation curve (replicates) ([1]; HEK-OAT3, 6-CF 62.5 uM): 24.87 and 28.11 and 27.05; 6-CF uptake, saturation curve (replicates) ([1]; HEK-OAT3, 6-CF 125 uM): 31.12 and 34.21 and 34.22; 6-CF uptake, saturation curve (replicates) ([1]; HEK-OAT3, 6-CF 250 uM): 38.59 and 48.68 and 49.93; 6-CF uptake, saturation curve (replicates) ([1]; HEK-OAT3, 6-CF 500 uM): 59.67 and 68.36 and 60.32; 6-CF uptake, time course (replicates) ([1]; HEK-OAT3, 1 min): 15.96 and 14.63 and 12.89; 6-CF uptake, time course (replicates) ([1]; HEK-OAT3, 3 min): 23.66 and 23.83 and 22.4238; 6-CF uptake, time course (replicates) ([1]; HEK-OAT3, 5 min): 30.9 and 31.16 and 28.05; 6-CF uptake, time course (replicates) ([1]; HEK-OAT3, 7 min): 39.99 and 36.19 and 41.91; 6-CF uptake, time course (replicates) ([1]; HEK-OAT3, 10 min): 50.24 and 52.458 and 60.541; 6-CF uptake, time course (replicates) ([1]; HEK-OAT3, 15 min): 52.72 and 56.05 and 66.23; 6-CF uptake, time course (replicates) ([1]; HEK-OAT3, 20 min): 78 and 76.09 and 111.922; 6-CF uptake, saturation curve (replicates) ([2]; HEK-OAT1, 6-CF 0.4882813 uM): 7.173 and 7.446 and 6.987; 6-CF uptake, saturation curve (replicates) ([2]; HEK-OAT1, 6-CF 0.9765625 uM): 12.8274 and 13.23 and 13; 6-CF uptake, saturation curve (replicates) ([2]; HEK-OAT1, 6-CF 1.953125 uM): 27.87 and 28.3406 and 28.05; 6-CF uptake, saturation curve (replicates) ([2]; HEK-OAT1, 6-CF 3.90625 uM): 46.16 and 53.71 and 47.47; 6-CF uptake, saturation curve (replicates) ([2]; HEK-OAT1, 6-CF 7.8125 uM): 70.1 and 79.19 and 68.4603; 6-CF uptake, saturation curve (replicates) ([2]; HEK-OAT1, 6-CF 15.625 uM): 99.74 and 104.681 and 93.41; 6-CF uptake, saturation curve (replicates) ([2]; HEK-OAT1, 6-CF 31.25 uM): 121.9009 and 125.5377 and 115.7964; 6-CF uptake, saturation curve (replicates) ([2]; HEK-OAT1, 6-CF 62.5 uM): 137.2491 and 143.8246 and 138.2214; 6-CF uptake, saturation curve (replicates) ([2]; HEK-OAT1, 6-CF 125 uM): 148.3736 and 150.9828 and 144.0527; 6-CF uptake, saturation curve (replicates) ([2]; HEK-OAT1, 6-CF 250 uM): 164.0673 and 159.2171 and 152.7382; 6-CF uptake, saturation curve (replicates) ([2]; HEK-OAT1, 6-CF 500 uM): 180.965 and 184.434 and 169.8854; 6-CF uptake, time course (replicates) ([2]; HEK-OAT1, 1 min): 103.0408 and 111.2811 and 116.9642; 6-CF uptake, time course (replicates) ([2]; HEK-OAT1, 2 min): 184.2101 and 188.6327 and 203.3025; 6-CF uptake, time course (replicates) ([2]; HEK-OAT1, 4 min): 263.4748 and 273.8167 and 274.8526; 6-CF uptake, time course (replicates) ([2]; HEK-OAT1, 6 min): 366.3584 and 347.2089 and 351.4604; 6-CF uptake, time course (replicates) ([2]; HEK-OAT1, 8 min): 433.3665 and 398.0952 and 430.7222; 6-CF uptake, time course (replicates) ([2]; HEK-OAT1, 10 min): 468.8556 and 433.6342 and 503.1246; 6-CF uptake, time course (replicates) ([2]; HEK-OAT1, 15 min): 515.439 and 498.8523; 6-CF uptake, time course (replicates) ([3]; EV (run with HEK-OAT3), 0 min): -0.296 and -0.1638 and -0.3041; 6-CF uptake, time course (replicates) ([3]; EV (run with HEK-OAT3), 1 min): 0.1864 and 0.1215 and 0.1926; 6-CF uptake, time course (replicates) ([3]; EV (run with HEK-OAT3), 3 min): 1.062 and 1.738 and 0.6624; 6-CF uptake, time course (replicates) ([3]; EV (run with HEK-OAT3), 5 min): 1.6 and 1.946 and 1.9; 6-CF uptake, time course (replicates) ([3]; EV (run with HEK-OAT3), 7 min): 3.081 and 4.38 and 4.257; 6-CF uptake, time course (replicates) ([3]; EV (run with HEK-OAT3), 10 min): 12.29 and 7.712 and 11.67; 6-CF uptake, time course (replicates) ([3]; EV (run with HEK-OAT3), 15 min): 22.75 and 12.81 and 21.0992; 6-CF uptake, time course (replicates) ([3]; EV (run with HEK-OAT3), 20 min): 40.6 and 70.13 and 42.87; 6-CF uptake, time course (replicates) ([3]; HEK-EV (run with HEK-OAT1), 1 min): 2.029 and 2.127 and 1.449; 6-CF uptake, time course (replicates) ([3]; HEK-EV (run with HEK-OAT1), 2 min): 3.517 and 2.496; 6-CF uptake, time course (replicates) ([3]; HEK-EV (run with HEK-OAT1), 4 min): 3.274 and 1.899; 6-CF uptake, time course (replicates) ([3]; HEK-EV (run with HEK-OAT1), 6 min): 2.9 and 5.179 and 2.231; 6-CF uptake, time course (replicates) ([3]; HEK-EV (run with HEK-OAT1), 8 min): 2.807 and 2.226 and 2.134; 6-CF uptake, time course (replicates) ([3]; HEK-EV (run with HEK-OAT1), 10 min): 6.849 and 3.392; 6-CF uptake, time course (replicates) ([3]; HEK-EV (run with HEK-OAT1), 15 min): 2.156 and 2.367 and 2.88
